According to patent publication US10842814B2, “Use of low dose arsenic for preserving genomic integrity” (Board of Regents of the University of Texas System, priority 2016, dated 2020):
Entries after “also recorded” stand apart in the source; their conditions may differ.

Experiments:
telomerase = target: T1, telomerase (Homo sapiens, UniProt O14746); experiment: Telomerase activity by TRAP assay; type: cell-based; conditions: HEK 293T, LDA 0 nM to 500 nM for 24 hrs, 12 Gy IR, further 48 hrs
T1 construct: Extracted protein (500 ng) was used to assess telomerase activity by TRAP; endogenous in cells; host or cells: HEK 293T cells
T1 sequence (O14746 whole entry): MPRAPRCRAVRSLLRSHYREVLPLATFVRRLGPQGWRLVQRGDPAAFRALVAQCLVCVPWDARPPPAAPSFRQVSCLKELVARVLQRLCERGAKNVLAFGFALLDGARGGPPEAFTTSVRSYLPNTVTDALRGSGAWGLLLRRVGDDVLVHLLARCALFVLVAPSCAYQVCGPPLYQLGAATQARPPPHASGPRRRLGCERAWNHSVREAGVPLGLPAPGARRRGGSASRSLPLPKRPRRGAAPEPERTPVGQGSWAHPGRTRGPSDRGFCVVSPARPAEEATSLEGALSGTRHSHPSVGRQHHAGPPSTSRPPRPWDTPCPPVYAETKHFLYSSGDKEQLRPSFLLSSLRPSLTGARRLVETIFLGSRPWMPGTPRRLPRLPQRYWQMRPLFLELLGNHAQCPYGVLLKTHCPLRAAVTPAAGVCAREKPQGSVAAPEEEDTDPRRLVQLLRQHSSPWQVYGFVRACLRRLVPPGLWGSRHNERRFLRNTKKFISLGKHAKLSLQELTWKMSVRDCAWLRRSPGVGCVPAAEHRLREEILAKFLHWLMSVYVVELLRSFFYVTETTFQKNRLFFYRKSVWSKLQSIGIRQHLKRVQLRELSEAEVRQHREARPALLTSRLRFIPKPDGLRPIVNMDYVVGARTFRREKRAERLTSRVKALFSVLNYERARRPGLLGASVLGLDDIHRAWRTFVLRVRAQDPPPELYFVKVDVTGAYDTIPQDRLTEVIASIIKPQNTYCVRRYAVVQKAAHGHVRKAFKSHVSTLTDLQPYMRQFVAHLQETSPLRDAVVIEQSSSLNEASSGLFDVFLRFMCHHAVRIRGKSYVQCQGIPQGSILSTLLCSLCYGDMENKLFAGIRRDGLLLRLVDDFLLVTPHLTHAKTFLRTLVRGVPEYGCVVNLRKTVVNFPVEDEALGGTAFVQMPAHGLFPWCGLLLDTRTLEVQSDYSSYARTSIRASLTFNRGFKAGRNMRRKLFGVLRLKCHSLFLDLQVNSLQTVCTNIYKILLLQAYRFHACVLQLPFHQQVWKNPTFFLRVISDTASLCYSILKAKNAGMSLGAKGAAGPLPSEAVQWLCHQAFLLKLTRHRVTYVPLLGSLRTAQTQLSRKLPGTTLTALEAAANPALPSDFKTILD
T1 sequence (O60832 whole entry partner): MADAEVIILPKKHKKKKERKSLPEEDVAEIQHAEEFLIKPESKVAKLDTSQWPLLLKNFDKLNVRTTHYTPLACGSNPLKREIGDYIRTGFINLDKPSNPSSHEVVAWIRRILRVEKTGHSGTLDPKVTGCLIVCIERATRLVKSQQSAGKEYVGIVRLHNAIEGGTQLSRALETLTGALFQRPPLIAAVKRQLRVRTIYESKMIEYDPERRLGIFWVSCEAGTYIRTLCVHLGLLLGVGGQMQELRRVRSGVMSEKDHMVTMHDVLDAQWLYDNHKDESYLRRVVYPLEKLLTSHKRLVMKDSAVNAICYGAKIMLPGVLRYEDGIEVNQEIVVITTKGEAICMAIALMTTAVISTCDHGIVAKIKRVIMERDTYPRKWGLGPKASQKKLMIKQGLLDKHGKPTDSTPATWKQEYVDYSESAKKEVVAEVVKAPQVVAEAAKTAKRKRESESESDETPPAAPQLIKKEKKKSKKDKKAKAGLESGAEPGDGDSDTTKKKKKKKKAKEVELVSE
T1 sequence (Q9NPE3 whole entry partner): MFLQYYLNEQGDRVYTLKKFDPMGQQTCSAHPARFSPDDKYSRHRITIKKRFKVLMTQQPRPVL
T1 sequence (Q9NX24 whole entry partner): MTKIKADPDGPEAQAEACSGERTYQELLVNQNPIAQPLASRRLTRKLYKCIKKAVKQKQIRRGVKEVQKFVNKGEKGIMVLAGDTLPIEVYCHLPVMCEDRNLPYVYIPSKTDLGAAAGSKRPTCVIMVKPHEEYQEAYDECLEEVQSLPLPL
T1 sequence (Q9NY12 whole entry partner): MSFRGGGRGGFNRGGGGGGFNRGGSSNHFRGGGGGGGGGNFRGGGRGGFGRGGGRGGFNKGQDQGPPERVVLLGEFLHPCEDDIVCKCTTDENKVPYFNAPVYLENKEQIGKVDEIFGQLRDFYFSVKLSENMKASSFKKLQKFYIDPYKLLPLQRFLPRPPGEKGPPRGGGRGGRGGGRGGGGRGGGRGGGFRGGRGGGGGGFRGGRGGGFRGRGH
T1 sequence (Q9BUR4 whole entry partner): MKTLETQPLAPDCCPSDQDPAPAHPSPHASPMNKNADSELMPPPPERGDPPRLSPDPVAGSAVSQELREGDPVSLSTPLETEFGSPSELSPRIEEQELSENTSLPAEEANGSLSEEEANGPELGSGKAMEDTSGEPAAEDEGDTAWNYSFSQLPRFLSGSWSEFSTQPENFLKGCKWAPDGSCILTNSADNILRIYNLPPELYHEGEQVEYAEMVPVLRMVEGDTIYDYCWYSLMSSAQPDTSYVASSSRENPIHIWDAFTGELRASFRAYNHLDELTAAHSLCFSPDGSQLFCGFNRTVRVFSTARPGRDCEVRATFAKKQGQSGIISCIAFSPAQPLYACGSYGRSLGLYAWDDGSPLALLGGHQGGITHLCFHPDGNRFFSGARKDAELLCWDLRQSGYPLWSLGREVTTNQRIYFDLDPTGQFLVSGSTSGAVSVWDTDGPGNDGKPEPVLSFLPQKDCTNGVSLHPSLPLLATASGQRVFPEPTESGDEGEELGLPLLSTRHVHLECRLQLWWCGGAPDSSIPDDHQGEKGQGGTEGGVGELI
Experimental: FIG. 7. HEK cells were stimulated with ConA, 10 μg/ml. After 24 hrs, LDA was introduced (range from 0 nM to 500 nM) and again incubated 24 hrs. 12 Gy of IR was delivered, cells were incubated an additional 48 hrs and harvested. Extracted protein (500 ng) was used to assess telomerase activity by TRAP, compared with a telomerase positive control and no-Arsenic, no-IR control. HI: heat inactivated.
However, we will test this observation in T lymphocytes, which are known to dynamically regulate telomerase expression. This will better recapitulate the effect of LDA within the hematopoietic compartment.

[1] = Observation of arsenic-induced malignancy in animal model; type: in vivo
Text: Arsenic has different biological effects in vitro and induces expression of different sets of genes depending on the dose. Our approach with LDA aims to mitigate certain known adverse biological effects. For example, arsenic trioxide is a cytotoxic agent used to treat acute promyelocytic leukemia (APL). However, the dose of arsenic trioxide used for our strategy is much lower than the dose used to treat APL. Arsenic is also a known carcinogen.

[2] = system: human adult foreskin keratinocytes; conditions: cited from earlier work
telomere = conditions: individuals with telomere maintenance disorders; cited from earlier work
[3] = system: mouse embryonic stem cells expressing RAD51^K133A; experiment: Loss of heterozygosity (LOH) assay, miniHPRT deletion, 6-TG resistance; type: cell-based
Text: FIG. 8. […] NT; no arsenite treatment, WT; wild type embryonic stem cells, KA; mutant embryonic stem cells expressing RAD51^K133A
We performed a loss of heterozygosity (LOH) assay to detect mutations in the HPRT gene [resistance to 6-TG (thioguanine)] utilizing a mouse embryonic stem cells that express RAD51^K133A. We used a knockout-knockin strategy that introduces RAD51^K133A adjacent to the mouse RAD51 promoter while restoring miniHPRT, a positive/negative selection cassette: select for expression in HAT (hypoxanthine, aminopterin, thymidine) and select against expression in 6-TG. We screen for LOH of miniHPRT by selecting in 6-TG. Using this assay, we can detect a broad range of mutations. RAD51 is a recombinase that is essential for DNA double strand break repair and for protecting the nascent strand during replication. The K133A mutation is in the highly conserved Walker A motif and it causes a defect in ATP binding that disables the ability of RAD51 to induce topological changes in duplex DNA in an ATP-dependent manner.
For this assay, mutant mouse embryonic stem cells expressing RAD51^K133A were passaged two times while being selected in HAT to remove any cells that spontaneously deleted miniHPRT. Then LDA and HAT were applied to these cells for 2 days. […] Cells were then seeded onto new plates in 6-TG and colonies were counted 8 days later. […]

[4] = Clinical trial: toxicity and blood counts during myelosuppressive chemotherapy; type: in vivo, human
Text: Additionally, data from a clinical trial supports a beneficial effect of LDA in patients. The trial had two objectives: 1) to define the lowest safe dose of arsenic trioxide that blocks p53 activation in patients and 2) to assess the potential of LDA in decreasing hematological toxicity from myelosuppressive chemotherapy. Patients scheduled for treatment with at least 4 cycles of myelosuppressive chemotherapy with a minimum of 2 weeks between the cycles were eligible.
The p53 expression level in patients' peripheral lymphocytes was measured as a surrogate marker for p53 activity for the patients. […] For the second stage of the study (second objective), patients were treated with chemotherapy without any LDA pretreatment before cycles 1, 3 and 5. They were treated with intravenous LDA of 0.005 mg/kg for 3 days prior to cycles 2, 4 and 6. […] Because the competing and compounding effects of multi-drug chemotherapy on p53 were felt to affect the p53 activity even in the presence of LDA pretreatment, we decided to focus on p53 activity obtained just prior to chemotherapy administration (on day 1). If the p53 activity level for the subsequent cycle (e.g., cycle 2 for cycle 1, cycle 4 for cycle 3 etc.) was lower than the baseline cycle, p53 was defined as “suppressed” for the pair of cycles. […]

bone marrow cells = experiment: Bone marrow protection against Y-90 ibritumomab tiuxetan-induced damage (H&E, γ-H2AX, TUNEL staining); type: in vivo, BALB/c mice
Experimental: At the indicated time points, mice were sacrificed by cervical […] and bone marrows were harvested for staining. (A) Quantification of γ-H2AX positive cells.
LDA pretreatment was administered through drinking water containing 1 mg/L arsenic trioxide for three days. […] Tissue samples were collected at different time points (3 hours to 5 weeks) after treatment.
Bone marrow damage was analyzed histologically with hematoxylin and eosin (H&E) staining, DNA DSBs were assessed by γ-H2AX staining and apoptosis was detected by terminal deoxynucleotidyl transferase dUTP nick end labeling (TUNEL) staining.

Karpas 422 = experiment: Mouse xenograft model with CD20 expressing lymphoma cell line, tumor volume; type: in vivo
Experimental: Treatments were initiated 1 week after implantation when tumors became palpable. Tumor volumes were measured periodically with calipers. Tumor volume was calculated using the equation: volume=length×width×depth×0.5236 […]. Two independent experiments were done and the tumor volumes were expressed as means±SE.

untransformed cells = experiment: Pretreatment of untransformed cells with LDA: p53, NF-kB, glycolysis; type: cell-based; conditions: in vitro and in vivo studies
Text: Activation of p53 is one of the major pathways by which DNA damaging agents such as radiation therapy and chemotherapy cause toxicity in normal tissues and it induces a cascade of events that eventually leads to cell senescence or death. […] This metabolic shift provides cells with effective protection against cytotoxic radiation or chemotherapy, coupling the metabolic pathway to cellular resistance. […] This protective effect is selective to normal tissues, as it requires functional p53. Though not every cancer cell has detectable p53 mutation, essentially every cancer cell has dysfunctional p53. Therefore, cancer cells will not be protected by this strategy.
Activation of p53 is one of major pathways by which DNA damaging agents such as IR and chemotherapy cause toxicity in normal tissues, inducing a cascade of events that eventually leads to cell senescence or cell death. […] This metabolic shift provides cells with effective protection against cytotoxic IR or chemotherapy, coupling the metabolic pathway to cellular resistance. […] Importantly, this protective effect is selective to normal tissues, as it requires functional p53. Though not every cancer cell has a detectable p53 mutation, essentially every cancer cell has dysfunctional p53. Therefore, cancer cells will not be protected by this strategy.

[5] = system: mouse embryonic stem (ES) cells (WT, msh2−/−, p53−/−); experiment: Survival fraction of ES cells exposed to γ radiation and LDA; type: cell-based
Experimental: FIG. 6. Dose response to γ radiation and sodium (Na) arsenite. (A, B) Survival fraction curves to determine the working doses. The wild type (WT) cells (black, green) are the parental cells for the msh2 and p53 mutations, respectively. (C, D) Survival fraction curves with msh2−/− and p53−/− cells exposed to γ radiation and LDA (100 nM Na arsenite). Error bars are shown for the average of 3 independent experiments.
To discover LDA essential genes, cell survival and DNA damage/mutation assays will be performed. First we will establish working doses for all control and mutant cells in Table 1 since they will vary depending on the mutation. As a pilot we started with ES cells mutated for Msh2 and p53 since mutations in both are implicated in the development and progression of secondary MDS/AML.
Msh2 is a member of mismatch repair (MMR) important for postreplication repair and homologous recombination regulation while p53 is essential for responses to a variety of stresses including DNA damage and ribosomal stress. Based on the dose response curve (FIGS. 6A, B), cells will be exposed to 100 nM sodium arsenite 24 hours before exposure to 3-6 Gy. […] Since the differences for the […] cells and their control cells are small, we will repeat the experiment with different Na arsenite doses. […]

[6] = system: T-cell leukemic cell line (Loucy); experiment: Relative telomere length of T-cell leukemic cell line after 12 Gy radiation; type: cell-based; conditions: presence or absence of LDA
Text: FIG. 5. Relative telomere length of T-cell leukemic cell line (Loucy) after 12 Gy of radiation in the presence or absence of LDA treatment.

peripheral T-lymphocytes = experiment: Telomere length of ConA-stimulated peripheral blood T-lymphocytes after radiation or chemotherapy; type: cell-based, human; conditions: 100 nM arsenic trioxide for 24 hours, then 12 Gy X-ray, harvested 48 hours later
Experimental: FIG. 2. T-lymphocytes isolated from healthy donors' peripheral blood were incubated with 10 μg/ml of Concanavalin A overnight. The cells were treated with either solvent or 100 nM arsenic (As) trioxide for 24 hours, followed by 12 Gy of X-ray treatment. Forty-eight hours later, the cells were harvested for telomere length measurement. The results represent four independent experiments. Paired student's t-test was used to calculate the p values.
FIG. 3. (A) Live cell percentage and (B) relative telomere length of T-lymphocytes in response to a serial dilution of etoposide. (C) Live cell percentage and (D) relative telomere length of T-lymphocytes treated with solvent or 160 μM etoposide in the presence or absence of LDA pretreatment.
FIG. 4. (A) Live cell percentage and (B) relative telomere length of T-lymphocytes in response to a serial dilution of doxorubicin. (C) Live cell percentage and (D) relative telomere length of T-lymphocytes treated with solvent or 1.6 μM doxorubicin in the presence or absence of LDA pretreatment.
As one of the first steps to explore the role of LDA in protecting the bone marrow from DNA DSBs as observed in FIG. 1 above, we studied the effect of LDA on telomere length in the setting of IR. We observed the expected shortening of telomere length in the peripheral T-lymphocytes (obtained from donors' peripheral blood and proliferated with ConA) after IR.

[AsH3] [arsenic]
telomerase activity (TRAP) (telomerase): no obvious difference in telomerase activity | arsenic-induced malignancy [1]: not observed any arsenic-induced malignancy

O[As](O)O [arsenite]
concentration resulting in induced proliferation with enhanced NF-κB and AP-1 activity ([2]; 24 hr): ≤ 5 µM | concentration with statistically significant decrease of cell viability [2]: ≥ 10 µM

C#C[C@]1(O)CC[C@H]2[C@@H]3CCC4=Cc5oncc5C[C@]4(C)[C@H]3CC[C@@]21C [danazol]
telomere attrition (telomere): significantly reduce telomere attrition

O=[As]O [sodium arsenite]
spontaneous deletion of miniHPRT (percentage of 6-TG-resistant cells) ([3]; 5 nM sodium arsenite): reduced this deletion | spontaneous deletion of miniHPRT (percentage of 6-TG-resistant cells) ([3]; 100 nM sodium arsenite): reduced this deletion

arsenic trioxide
arsenic trioxide related toxicity ([4]; patients, first stage, arsenic trioxide intravenously): None of these patients experienced any arsenic trioxide related toxicity

arsenic trioxide [LDA]
bone marrow cell loss (loss of cellularity), H&E staining (bone marrow cells; LDA pretreatment (drinking water 1 mg/L arsenic trioxide, three days) before 200 μCi Y-90 ibritumomab tiuxetan via tail vein): protected; also recorded: significantly reduced | apoptosis, TUNEL positive cells in bone marrow (bone marrow cells; LDA pretreatment before 200 μCi Y-90 ibritumomab tiuxetan): protected | DNA DSBs, γ-H2AX positive cells in bone marrow (bone marrow cells; LDA pretreatment before 200 μCi Y-90 ibritumomab tiuxetan, 6 hours to 1 week after treatment): protected; also recorded: considerably diminished | growth of the implanted tumors (tumor volume) (Karpas 422; LDA pretreatment alone): did not have any detectable effect | effect of LDA pretreatment on Y-90-induced tumor growth suppression (Karpas 422; LDA pretreatment followed by Y-90 ibritumomab tiuxetan): without compromising tumor response; also recorded: no effect | glycolysis (untransformed cells): marked induction of glycolysis | p53 and NF-kB response (untransformed cells): induces concerted p53 suppression and NF-kB activation | mean ANC, WBC and Hgb, p53 suppressed group relative to activated group ([4]; 26 patients, LDA 0.005 mg/kg for 3 days before myelosuppressive chemotherapy cycles): statistically significantly higher; also recorded: better blood counts | LDA protection of control and msh2−/− cells from γ radiation (survival fraction) ([5]; 100 nM Na arsenite 24 hours before γ radiation): protects both control and msh2^−/− cells from γ radiation | LDA-mediated protection in p53−/− cells versus WT (survival fraction) ([5]; 100 nM Na arsenite, γ radiation, differences small): p53 appears to assist in LDA-mediated protection | telomere length of leukemic cells [6]: does not make any difference | telomere length after IR (peripheral T-lymphocytes): maintenance of telomere length; also recorded: helps prevent shortening of telomere length
